pIC50: −log10 of the molar value. Values joined by “and” are separate entries in the source; they are usually repeats but may differ in a detail not shown here. Identical values can stand only once.
Test system: 276233-004-R-J1-PDC KRAS spheroids with HUVEC/MSC, viability
Test: Anticancer human tumor 276233-004-R-J1-PDC patient-derived colon adenocarcinoma cell line growth inhibition [KRAS2]
Conditions: for viability, T/C: stronger effect = lower value
Outline: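 KRAS-mutant tumor cells were grown as spheroids with HUVEC endothelial cells and human MSCs as stroma. Targeted agents were tested alone and with KRAS pathway inhibitors. Doses started at or near clinical Cmax, or 10 microM, descending half-log.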

[1] = curve of first compound, second compound 0.1 µM
[2] = curve of first compound, second compound 0.316 µM
[3] = curve of first compound, second compound 1 µM
[4] = curve of first compound, second compound 3.16 µM
[5] = curve of first compound, second compound 10 µM
[6] = second compound 0.1 µM, first compound 0.0316 µM
[7] = second compound 0.1 µM, first compound 0.1 µM
[8] = second compound 0.1 µM, first compound 0.316 µM
[9] = second compound 0.1 µM, first compound 1 µM
[10] = second compound 0.1 µM, first compound 3.16 µM
[11] = second compound 0.1 µM, first compound 10 µM
[12] = second compound 0.316 µM, first compound 0.0316 µM
[13] = second compound 0.316 µM, first compound 0.1 µM
[14] = second compound 0.316 µM, first compound 0.316 µM
[15] = second compound 0.316 µM, first compound 1 µM
[16] = second compound 0.316 µM, first compound 3.16 µM
[17] = second compound 0.316 µM, first compound 10 µM
[18] = second compound 1 µM, first compound 0.0316 µM
[19] = second compound 1 µM, first compound 0.1 µM
[20] = second compound 1 µM, first compound 0.316 µM
[21] = second compound 1 µM, first compound 1 µM
[22] = second compound 1 µM, first compound 3.16 µM
[23] = second compound 1 µM, first compound 10 µM
[24] = second compound 3.16 µM, first compound 0.0316 µM
[25] = second compound 3.16 µM, first compound 0.1 µM
[26] = second compound 3.16 µM, first compound 0.316 µM
[27] = second compound 3.16 µM, first compound 1 µM
[28] = second compound 3.16 µM, first compound 3.16 µM
[29] = second compound 3.16 µM, first compound 10 µM
[30] = second compound 10 µM, first compound 0.0316 µM
[31] = second compound 10 µM, first compound 0.1 µM
[32] = second compound 10 µM, first compound 0.316 µM
[33] = second compound 10 µM, first compound 1 µM
[34] = second compound 10 µM, first compound 3.16 µM
[35] = second compound 10 µM, first compound 10 µM
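Further: cells exposed to agents for seven days before viability read.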
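Wherever viability, T/C is given: 100% = DMSO vehicle control wells and lower values mean fewer viable cells.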

`COc1cc(Nc2ncc3c(n2)-c2ccc(Cl)cc2C(c2c(F)cccc2OC)=NC3)ccc1C(=O)O` + CNCc1ccccc1-c1csc(C(C)Nc2nc(C)nc3cc(OC)c(OC)cc23)c1 gave a pIC50 [1] of less than 5.00, a pIC50 [2] of less than 5.00 and a pIC50 [3] of less than 5.00. For the same molecule, the pIC50 [4] was greater than 7.50, the pIC50 [5] was greater than 7.50 and the viability, T/C [6] was 103%. For the same molecule, the viability, T/C [7] was 110%, the viability, T/C [8] was 75.7% and the viability, T/C [9] was 104%. The viability, T/C [10] was 95.7%, the viability, T/C [11] was 84.2% and the viability, T/C [12] was 107%. For the same molecule, the viability, T/C [13] was 93%, the viability, T/C [14] was 99.1% and the viability, T/C [15] was 97.7%. The viability, T/C [16] was 91.9%, the viability, T/C [17] was 94.6% and the viability, T/C [18] was 80.4%. For the same molecule, the viability, T/C [19] was 86.1%, the viability, T/C [20] was 111% and the viability, T/C [21] was 85%. It also gave a viability, T/C [22] of 72.1%, a viability, T/C [23] of 66.3% and a viability, T/C [24] of 5.21%. It also gave a viability, T/C [25] of 1.97%, a viability, T/C [26] of 1.67% and a viability, T/C [27] of 4.48%. The viability, T/C [28] was 4.94%, the viability, T/C [29] was 0.76% and the viability, T/C [30] was 2.44%. It also gave a viability, T/C [31] of 3.58%, a viability, T/C [32] of 0.22% and a viability, T/C [33] of 0.22%. The viability, T/C [34] was 0.73% and the viability, T/C [35] was 0.99%.
For `CC1COCCN1c1cc(-c2ccnn2C)c2ccnc(-c3ccn[nH]3)c2n1` (centres undefined) + CNCc1ccccc1-c1csc(C(C)Nc2nc(C)nc3cc(OC)c(OC)cc23)c1, the pIC50 [1] was less than 5.50, the pIC50 [2] was less than 5.50 and the pIC50 [3] was less than 5.50. For the same molecule, the pIC50 [4] was greater than 8.00, the pIC50 [5] was greater than 8.00 and the viability, T/C (second compound 0.1 µM, first compound 0.01 µM) was 93.1%. For the same molecule, the viability, T/C [6] was 95.5%, the viability, T/C [7] was 90.2% and the viability, T/C [8] was 82.8%. For the same molecule, the viability, T/C [9] was 70%, the viability, T/C [10] was 57% and the viability, T/C (second compound 0.316 µM, first compound 0.01 µM) was 93.2%. For the same molecule, the viability, T/C [12] was 94.1%, the viability, T/C [13] was 87.7% and the viability, T/C [14] was 85.3%. It also gave a viability, T/C [15] of 77.9%, a viability, T/C [16] of 59.1% and a viability, T/C (second compound 1 µM, first compound 0.01 µM) of 82%. It also gave a viability, T/C [18] of 86.7%, a viability, T/C [19] of 69.9% and a viability, T/C [20] of 63.1%. The viability, T/C [21] was 57.7%, the viability, T/C [22] was 50.9% and the viability, T/C (second compound 3.16 µM, first compound 0.01 µM) was 0.49%. The viability, T/C [24] was 1.11%, the viability, T/C [25] was 1.38% and the viability, T/C [26] was 1.8%. The viability, T/C [27] was 2.11%, the viability, T/C [28] was 1.03% and the viability, T/C (second compound 10 µM, first compound 0.01 µM) was 0.67%. The viability, T/C [30] was 3.53%, the viability, T/C [31] was 0.82% and the viability, T/C [32] was 0.17%. The viability, T/C [33] was 0.15% and the viability, T/C [34] was 2.79%.
`C=CC(=O)N1CCN(c2nc(=O)n(-c3c(C)ccnc3C(C)C)c3nc(-c4c(O)cccc4F)c(F)cc23)C(C)C1` (centres undefined) gave a pIC50 (compound alone, run of 07/12/2021) of less than 5.00, a pIC50 (compound alone, run of 07/19/2021) of less than 5.00 and a pIC50 (compound alone, run of 07/26/2021) of less than 5.00.
With `CCNC(=O)CC1N=C(c2ccc(Cl)cc2)c2cc(OC)ccc2-n2c(C)nnc21` (centres undefined) the viability, T/C (compound 0.0316 µM) was 95.8% [middle of 5 runs], the viability, T/C (compound 0.1 µM) was 88.7% [middle of 5 runs] and the viability, T/C (compound 0.316 µM) was 68.2% [middle of 5 runs]. The viability, T/C (compound 1 µM) was 70.9% [middle of 5 runs], the viability, T/C (compound 3.16 µM) was 71.3% [middle of 5 runs] and the pIC50 (curve of compound) was < 5.00 and 5.25.
`CCNC(=O)CC1N=C(c2ccc(Cl)cc2)c2cc(OC)ccc2-n2c(C)nnc21` (centres undefined) + C=CC(=O)N1CCN(c2nc(OCC3CCCN3C)nc3c2CCN(c2cccc4cccc(C)c24)C3)CC1CC#N was tested, and the pIC50 (curve of first compound, second compound 0.0316 µM) was less than 5.00, the pIC50 [1] was less than 5.00 and the pIC50 [2] was less than 5.00. It also gave a pIC50 [3] of less than 5.00, a pIC50 [4] of 6.72 and a viability, T/C (second compound 0.0316 µM, first compound 0.0316 µM) of 94.8%. For the same molecule, the viability, T/C (second compound 0.0316 µM, first compound 0.1 µM) was 80.9%, the viability, T/C (second compound 0.0316 µM, first compound 0.316 µM) was 63.6% and the viability, T/C (second compound 0.0316 µM, first compound 1 µM) was 57.1%. The viability, T/C (second compound 0.0316 µM, first compound 3.16 µM) was 68.6%, the viability, T/C (second compound 0.0316 µM, first compound 10 µM) was 62% and the viability, T/C [6] was 95.1%. It also gave a viability, T/C [7] of 81.2%, a viability, T/C [8] of 85.6% and a viability, T/C [9] of 60.2%. For the same molecule, the viability, T/C [10] was 59.5%, the viability, T/C [11] was 62.3% and the viability, T/C [12] was 94.8%. The viability, T/C [13] was 83.1%, the viability, T/C [14] was 83.3% and the viability, T/C [15] was 76.2%. The viability, T/C [16] was 65.4%, the viability, T/C [17] was 63.6% and the viability, T/C [18] was 80.5%. For the same molecule, the viability, T/C [19] was 66.1%, the viability, T/C [20] was 56.2% and the viability, T/C [21] was 57.6%. For the same molecule, the viability, T/C [22] was 56.6%, the viability, T/C [23] was 61.2% and the viability, T/C [24] was 60.3%. The viability, T/C [25] was 59.8%, the viability, T/C [26] was 42% and the viability, T/C [27] was 33.7%. The viability, T/C [28] was 36.4% and the viability, T/C [29] was 38.7%.
Work on `CC(C)NCC(C(=O)N1CCN(c2ncnc3c2C(C)CC3O)CC1)c1ccc(Cl)cc1` (centres undefined) + CC1OCC2(CCN(c3cnc(Sc4ccnc(N)c4Cl)c(N)n3)CC2)C1N yielded a pIC50 [1] of less than 5.00, a pIC50 [2] of 5.68 and a pIC50 [3] of 6.16. For the same molecule, the pIC50 [4] was 6.46, the pIC50 [5] was 6.74 and the viability, T/C [6] was 77.2%. It also gave a viability, T/C [7] of 75.2%, a viability, T/C [8] of 56.3% and a viability, T/C [9] of 65.9%. It also gave a viability, T/C [10] of 56.1%, a viability, T/C [11] of 51.5% and a viability, T/C [12] of 90.4%. For the same molecule, the viability, T/C [13] was 69%, the viability, T/C [14] was 55.8% and the viability, T/C [15] was 52.8%. For the same molecule, the viability, T/C [16] was 49.5%, the viability, T/C [17] was 47.5% and the viability, T/C [18] was 68%. The viability, T/C [19] was 59.5%, the viability, T/C [20] was 48.4% and the viability, T/C [21] was 52.8%. For the same molecule, the viability, T/C [22] was 48.1%, the viability, T/C [23] was 40.2% and the viability, T/C [24] was 63.3%. The viability, T/C [25] was 58.4%, the viability, T/C [26] was 52.1% and the viability, T/C [27] was 41.4%. The viability, T/C [28] was 37.1%, the viability, T/C [29] was 31.5% and the viability, T/C [30] was 59.1%. The viability, T/C [31] was 57%, the viability, T/C [32] was 38.1% and the viability, T/C [33] was 41.7%. It also gave a viability, T/C [34] of 36.1% and a viability, T/C [35] of 19.1%.

Source: PubChem BioAssay AID1963873 (Molecular Pharmacology Branch, DTP, NCI, 2024)
